According to ChEMBL document CHEMBL1201862, “PubChem BioAssay data set” (2004):
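Dose response: 5 concentrations. Exposure: 48 h. Format: 96-well plates. Endpoint: linear interpolation; highest concentration if not reached. At the GI50, growth is halved.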 Calls of active or inactive are those of the source. Rule as the data show it: active = GI50 up to about 1.1 µM and inactive = higher.

Assays:
Test in all cases: NCI tumour cell line growth inhibition, 48 h
ACHN = test system: ACHN
CCRF-CEM = test system: CCRF-CEM
EKVX = test system: EKVX
HCC 2998 = test system: HCC 2998
HL-60 = test system: HL-60
KM12 = test system: KM12
Malme-3M = test system: Malme-3M
OVCAR-3 = test system: OVCAR-3
OVCAR-4 = test system: OVCAR-4
OVCAR-8 = test system: OVCAR-8
SF-539 = test system: SF-539
SK-MEL-28 = test system: SK-MEL-28
TK-10 = test system: TK-10
U-251 = test system: U-251

Measured: GI50

COC(=O)C(C(=O)C(=O)Nc1cccc(O)c1)c1nc2ccc(Cl)cc2nc1O (stereo not given)
inactive: ACHN > 100 µM | CCRF-CEM > 100 µM | EKVX 48.9 µM | HCC 2998 > 100 µM | HL-60 > 100 µM | KM12 > 100 µM | Malme-3M > 100 µM | OVCAR-3 > 100 µM | OVCAR-4 > 100 µM | OVCAR-8 > 100 µM | SF-539 > 100 µM | SK-MEL-28 > 100 µM | TK-10 > 100 µM | U-251 > 100 µM

COC(=O)C(=O)C(C(=O)C(=O)Nc1cccc(C(C)=O)c1)c1nc2ccccc2nc1O (stereo not given)
inactive: ACHN > 100 µM | CCRF-CEM > 100 µM | EKVX 48.3 µM | HCC 2998 > 100 µM | HL-60 > 100 µM | KM12 > 100 µM | Malme-3M > 100 µM | OVCAR-3 > 100 µM | OVCAR-4 > 100 µM | SF-539 > 100 µM | SK-MEL-28 > 100 µM | TK-10 > 100 µM

CC(c1ccccc1)N1CC(C)(c2ccccc2)N(O)C(c2ccccc2)C1C (stereo not given)
inactive: ACHN 3.59 µM | CCRF-CEM 5.66 µM | EKVX 13.5 µM | HCC 2998 11.2 µM | HL-60 3.52 µM | KM12 8 µM | Malme-3M 18.8 µM | OVCAR-3 11.6 µM | OVCAR-8 9.91 µM | SF-539 5.73 µM | SK-MEL-28 4.08 µM | TK-10 17.1 µM | U-251 13.1 µM

Cc1cc2c(=O)cc(-c3ccc(C(F)(F)F)cc3)oc2c(C(=O)O)c1C
inactive: ACHN > 100 µM | CCRF-CEM > 100 µM | EKVX > 100 µM | KM12 > 100 µM | Malme-3M > 100 µM | OVCAR-3 > 100 µM | OVCAR-4 > 100 µM | OVCAR-8 > 100 µM | SF-539 > 100 µM | SK-MEL-28 > 100 µM | TK-10 > 100 µM | U-251 > 100 µM

Clc1ccc(OCCSCCCCCCCCCCSCCOc2ccc(Cl)cc2)cc1
inactive: ACHN > 100 µM | CCRF-CEM > 100 µM | EKVX > 100 µM | HCC 2998 > 100 µM | HL-60 > 100 µM | KM12 > 100 µM | Malme-3M > 100 µM | OVCAR-3 > 100 µM | OVCAR-8 > 100 µM | SF-539 > 100 µM | SK-MEL-28 > 100 µM | TK-10 > 100 µM | U-251 > 100 µM

O=C(Nc1ccc(S(=O)(=O)N[C@@H](C(=O)O)c2ccccc2)cc1)c1ccc(F)cc1
inactive: ACHN > 100 µM | CCRF-CEM > 100 µM | EKVX > 100 µM | HCC 2998 > 100 µM | KM12 > 100 µM | Malme-3M > 100 µM | OVCAR-3 > 100 µM | OVCAR-4 > 100 µM | OVCAR-8 > 100 µM | SF-539 > 100 µM | SK-MEL-28 > 100 µM | TK-10 > 100 µM | U-251 > 100 µM

CSC1CC2C(CC1(C)O)C2(C)C (stereo not given)
inactive: ACHN > 100 µM | HCC 2998 > 100 µM | KM12 > 100 µM | Malme-3M > 100 µM | OVCAR-4 > 100 µM | OVCAR-8 > 100 µM | SF-539 > 100 µM | SK-MEL-28 > 100 µM | TK-10 > 100 µM | U-251 > 100 µM

CN1CCCC2[C@@H]3CCC4=C(O)C(=O)CC[C@]4(C)C3CC[C@@]21C (stereo not given in full)
inactive: ACHN > 100 µM | CCRF-CEM > 100 µM | EKVX > 100 µM | HL-60 > 100 µM | KM12 > 100 µM | Malme-3M > 100 µM | OVCAR-3 > 100 µM | OVCAR-4 > 100 µM | OVCAR-8 > 100 µM | SF-539 > 100 µM | SK-MEL-28 > 100 µM | TK-10 > 100 µM | U-251 > 100 µM
